{"source": "paper PMC6901909", "about": "“Synergy Pattern of Short Cationic Antimicrobial Peptides Against Multidrug-Resistant Pseudomonas aeruginosa” (Frontiers in Microbiology, 2019)", "key": {"MDR P. aeruginosa PA 910": {"system": "MDR P. aeruginosa PA 910", "assay": "microbe, parasite or virus in culture", "type": "cell-based, Pseudomonas aeruginosa", "details": "MDR PA 910, 18 h", "method": "(§1) We selected six different P. aeruginosa isolates that were described as MDR and had been isolated from clinical and municipal waste water ([Schwartz et al., 2006]). The minimal inhibitory concentration (MIC) was determined in a microdilution assay using Mueller-Hinton (MH) broth following a previously published protocol ([Wiegand et al., 2008]). Briefly, a twofold serial dilution of the antibiotics and peptides were prepared and added to a bacteria solution, resulting in 2–5 10^5 CFU/ml. The microtiter plates (polypropylene, Corning) were incubated for 18 h at 37°C and MICs were taken visually."}, "MDR P. aeruginosa PA 919": {"system": "MDR P. aeruginosa PA 919", "assay": "microbe, parasite or virus in culture", "type": "cell-based, Pseudomonas aeruginosa", "method": "as §1"}, "MDR P. aeruginosa PA253": {"system": "MDR P. aeruginosa PA253", "assay": "microbe, parasite or virus in culture", "type": "cell-based, Pseudomonas aeruginosa", "method": "as §1"}, "P. aeruginosa PA01-wt": {"system": "P. aeruginosa PA01-wt", "assay": "microbe, parasite or virus in culture", "type": "cell-based, Pseudomonas aeruginosa", "method": "as §1"}, "[1]": {"system": "MDR isolate of P. aeruginosa (PA 910)", "details": "checkerboard, MHb", "method": "The checkerboard assay was used to determine the fractional inhibitory concentrations (FICs), following the protocol described in Koneman’s Color Atlas and Textbook of Diagnostic Microbiology ([Winn et al., 2006]). Briefly, combinations of peptides and antibiotics were prepared in 96-well plates (polypropylene, Corning) in a twofold dilution series. After the addition of a log-phase bacterial inoculum of 2–5 × 10^5 CFU/ml, plates were incubated at 37°C for 18 h. The FICs were determined by visual inspection and the effects of the combinations were determined using the FICs. The FIC was computed by adding two partial FIC values, FICA—the MIC of drug A, tested in combination with drug B divided by the MIC of drug A, tested alone and FICB—the MIC of drug B, tested in combination with drug A divided by the MIC of drug B, tested alone [FIC = FICA + FICB = (MICAB/MICA) + (MICBA/MICB), where MICA and MICB are the MICs of drugs A and B alone, respectively, and MICAB and MICBA are the MIC concentrations of the drugs in combination]. Here we use the European Committee for Antimicrobial Susceptibility Testing (EUCAST) definition, which is very similar to the definition provided by [Odds, 2003], except Odds define additive effects when FIC values are between 0.5 and 1 ([European Committee for Antimicrobial Susceptibility Testing [EUCAST] of the European Society of Clinical Microbiology and Infectious Diseases [ESCMID], 2000]; [Odds, 2003]). The combination of peptide (drug A) and antibiotics (drug B) was defined as synergistic if the FIC was ≤ 0.5, indifferent if the FIC was > 0.5 but ≤ 4.0 and antagonistic if the FIC was > 4.0."}, "[2]": {"details": "short AMPs, microdilution, Mueller-Hinton broth, 18 h at 37°C, read visually, triplicate (n = 3)"}}, "note": "Peptide text beside a SMILES is read from it.", "data": [{"smiles": "CC[C@H](C)[C@H](NC(=O)[C@H](CCCNC(=N)N)NC(=O)[C@H](C)NC(=O)[C@H](CC(C)C)NC(=O)[C@@H](N)CCCNC(=N)N)C(=O)N[C@H](C(=O)N[C@H](C(=O)N[C@H](C(=O)N[C@@H](CCCNC(=N)N)C(=O)N[C@H](C(=O)N[C@@H](C)C(=O)N[C@@H](CCCNC(=N)N)C(N)=O)C(C)C)[C@@H](C)CC)C(C)C)C(C)C", "note": "[Bac2a] (H-RLARIVVIRVAR-NH2)", "values": [{"measurement": "MIC against PA910 in μM (peptides, Table 4)", "setting": "MDR P. aeruginosa PA 910", "value": 32, "unit": "µM"}, {"measurement": "MIC against MDR isolates of PA, PA919", "setting": "MDR P. aeruginosa PA 919; MDR PA 919, 18 h", "value": 16, "unit": "µM"}, {"measurement": "MIC against MDR isolates of PA, PA253", "setting": "MDR P. aeruginosa PA253; MDR PA253, 18 h", "value": 32, "unit": "µM"}, {"measurement": "MIC against PA01 wt", "setting": "P. aeruginosa PA01-wt; -wt, 18 h", "value": 16, "unit": "µM"}]}, {"smiles": "N=C(N)NCCC[C@H](NC(=O)[C@H](CCCNC(=N)N)NC(=O)[C@@H](N)Cc1ccccc1)C(=O)N[C@@H](Cc1c[nH]c2ccccc12)C(=O)N[C@@H](Cc1c[nH]c2ccccc12)C(=O)N[C@@H](CCCCN)C(=O)N[C@@H](Cc1c[nH]c2ccccc12)C(=O)N[C@@H](Cc1ccccc1)C(=O)N[C@@H](CCCCN)C(N)=O", "note": "[HHC-53] (H-FRRWWKWFK-NH2)", "values": [{"measurement": "MIC against PA910 in μM (peptides, Table 4)", "setting": "MDR P. aeruginosa PA 910", "value": 32, "unit": "µM"}, {"measurement": "MIC against MDR isolates of PA, PA919", "setting": "MDR P. aeruginosa PA 919; MDR PA 919, 18 h", "value": 16, "unit": "µM"}, {"measurement": "MIC against MDR isolates of PA, PA253", "setting": "MDR P. aeruginosa PA253; MDR PA253, 18 h", "value": 8, "unit": "µM"}, {"measurement": "MIC against PA01 wt", "setting": "P. aeruginosa PA01-wt; -wt, 18 h", "value": 8, "unit": "µM"}]}, {"smiles": "CC[C@H](C)[C@H](N)C(=O)N[C@@H](CC(C)C)C(=O)N1CCC[C@H]1C(=O)N[C@@H](Cc1c[nH]c2ccccc12)C(=O)N[C@@H](CCCCN)C(=O)N[C@@H](Cc1c[nH]c2ccccc12)C(=O)N1CCC[C@H]1C(=O)N[C@@H](Cc1c[nH]c2ccccc12)C(=O)N[C@@H](Cc1c[nH]c2ccccc12)C(=O)N1CCC[C@H]1C(=O)N[C@@H](Cc1c[nH]c2ccccc12)C(=O)N[C@@H](CCCNC(=N)N)C(=O)N[C@@H](CCCNC(=N)N)C(N)=O", "note": "[Indolic., indolicidin]", "values": [{"measurement": "MIC against MDR isolates of PA, PA919", "setting": "MDR P. aeruginosa PA 919; [2]", "value": 32, "unit": "µM"}, {"measurement": "MIC against MDR isolates of PA, PA253", "setting": "MDR P. aeruginosa PA253; [2]", "value": "64 to 128", "unit": "µM"}, {"measurement": "MIC against PA01 wt", "setting": "P. aeruginosa PA01-wt; [2]", "value": 8, "unit": "µM"}, {"measurement": "FIC mean (SD), combination with CET", "setting": "[1]; confirmation study, peptide + ceftazidime, Indopt versions 1/8 MHb, mean of at least three measurements (n = 3), SD in brackets", "value": "0.71 (0.21)"}, {"measurement": "FIC, combination with AMI", "setting": "[1]; peptide + amikacin, for the Indopt versions 1/8 MHb, 2–5 × 10^5 CFU/ml, 37°C, 18 h, visual, determined once (n = 1)", "value": 0.75}, {"measurement": "FIC, combination with CEF", "setting": "[1]; peptide + cefepime, for the Indopt versions 1/8 MHb, 2–5 × 10^5 CFU/ml, 37°C, 18 h, visual, determined once (n = 1)", "value": 2}, {"measurement": "FIC, combination with CET", "setting": "[1]; peptide + ceftazidime, for the Indopt versions 1/8 MHb, 2–5 × 10^5 CFU/ml, 37°C, 18 h, visual, determined once (n = 1)", "value": 0.51}, {"measurement": "FIC, combination with CIP", "setting": "[1]; peptide + ciprofloxacin, for the Indopt versions 1/8 MHb, 2–5 × 10^5 CFU/ml, 37°C, 18 h, visual, determined once (n = 1)", "value": 0.5}, {"measurement": "FIC, combination with ERY", "setting": "[1]; peptide + erythromycin, for the Indopt versions 1/8 MHb, 2–5 × 10^5 CFU/ml, 37°C, 18 h, visual, determined once (n = 1)", "value": 0.63}, {"measurement": "FIC, combination with GEN", "setting": "[1]; peptide + gentamycin, for the Indopt versions 1/8 MHb, 2–5 × 10^5 CFU/ml, 37°C, 18 h, visual, determined once (n = 1)", "value": 0.5}, {"measurement": "FIC, combination with IMI", "setting": "[1]; peptide + imipenem, for the Indopt versions 1/8 MHb, 2–5 × 10^5 CFU/ml, 37°C, 18 h, visual, determined once (n = 1)", "value": 0.63}, {"measurement": "FIC, combination with KAN", "setting": "[1]; peptide + kanamycin, for the Indopt versions 1/8 MHb, 2–5 × 10^5 CFU/ml, 37°C, 18 h, visual, determined once (n = 1)", "value": 0.75}, {"measurement": "FIC, combination with MER", "setting": "[1]; peptide + meropenem, for the Indopt versions 1/8 MHb, 2–5 × 10^5 CFU/ml, 37°C, 18 h, visual, determined once (n = 1)", "value": 0.63}, {"measurement": "FIC, combination with PIP", "setting": "[1]; peptide + piperacillin, for the Indopt versions 1/8 MHb, 2–5 × 10^5 CFU/ml, 37°C, 18 h, visual, determined once (n = 1)", "value": 0.56}, {"measurement": "FIC, combination with PMB", "setting": "[1]; peptide + polymyxin B, for the Indopt versions 1/8 MHb, 2–5 × 10^5 CFU/ml, 37°C, 18 h, visual, determined once (n = 1)", "value": 0.25}, {"measurement": "FIC, combination with TET", "setting": "[1]; peptide + tetracycline, for the Indopt versions 1/8 MHb, 2–5 × 10^5 CFU/ml, 37°C, 18 h, visual, determined once (n = 1)", "value": 1}, {"measurement": "FIC, combination with TOB", "setting": "[1]; peptide + tobramycin, for the Indopt versions 1/8 MHb, 2–5 × 10^5 CFU/ml, 37°C, 18 h, visual, determined once (n = 1)", "value": 0.5}]}, {"smiles": "CC[C@H](C)[C@H](NC(=O)[C@@H](N)Cc1ccccc1)C(=O)N[C@@H](CCCCN)C(=O)N[C@@H](Cc1c[nH]c2ccccc12)C(=O)N[C@@H](CCCCN)C(=O)N[C@@H](CCCCN)C(=O)N[C@@H](CCCNC(=N)N)C(=O)N[C@@H](Cc1c[nH]c2ccccc12)C(=O)N[C@@H](Cc1c[nH]c2ccccc12)C(=O)N[C@@H](CCCCN)C(=O)N[C@@H](CCCCN)C(=O)N[C@@H](CCCNC(=N)N)C(=O)N[C@H](C(N)=O)[C@@H](C)O", "note": "[Indopt 1] (H-FIKWKKRWWKKRT-NH2)", "values": [{"measurement": "MIC against PA910 in μM (peptides, Table 4)", "setting": "MDR P. aeruginosa PA 910", "value": 8, "unit": "µM"}, {"measurement": "MIC against MDR isolates of PA, PA919", "setting": "MDR P. aeruginosa PA 919; MDR PA 919, 18 h", "value": 32, "unit": "µM"}, {"measurement": "MIC against MDR isolates of PA, PA253", "setting": "MDR P. aeruginosa PA253; MDR PA253, 18 h", "value": 16, "unit": "µM"}, {"measurement": "MIC against PA01 wt", "setting": "P. aeruginosa PA01-wt; -wt, 18 h", "value": 4, "unit": "µM"}]}, {"smiles": "CC[C@H](C)[C@H](NC(=O)[C@@H](N)Cc1ccccc1)C(=O)N[C@@H](CCCCN)C(=O)N[C@@H](Cc1c[nH]c2ccccc12)C(=O)N[C@@H](CCCNC(=N)N)C(=O)N[C@@H](Cc1ccccc1)C(=O)N[C@@H](CCCNC(=N)N)C(=O)N[C@@H](CCCNC(=N)N)C(=O)N[C@@H](Cc1c[nH]c2ccccc12)C(=O)N[C@@H](CCCCN)C(=O)N[C@@H](CCCCN)C(=O)N[C@@H](CCCNC(=N)N)C(=O)N[C@H](C(N)=O)[C@@H](C)O", "note": "[Indopt 2] (H-FIKWRFRRWKKRT-NH2)", "values": [{"measurement": "MIC against PA910 in μM (peptides, Table 4)", "setting": "MDR P. aeruginosa PA 910", "value": 8, "unit": "µM"}, {"measurement": "MIC against MDR isolates of PA, PA919", "setting": "MDR P. aeruginosa PA 919; MDR PA 919, 18 h", "value": 32, "unit": "µM"}, {"measurement": "MIC against MDR isolates of PA, PA253", "setting": "MDR P. aeruginosa PA253; MDR PA253, 18 h", "value": 16, "unit": "µM"}, {"measurement": "MIC against PA01 wt", "setting": "P. aeruginosa PA01-wt; -wt, 18 h", "value": 4, "unit": "µM"}]}]}
